{"source": "patent US11795196B2", "about": "“Mitochondria-targeting peptides” (Stealth BioTherapeutics Corp., priority 2017, dated 2023)", "test": "3H D-Arg-DMT-Lys-Phe-NH2 displacement filtration binding assay", "settings": "rat heart homogenate, 3H D-Arg-DMT-Lys-Phe-NH2 6-8 nM; range the pharmacological standard had to stay in (quality control)", "procedure": "1) Radioligand Displacement Methods and Procedures\n1.1 Rat Heart Homogenate Preparation\nAptuit is committed to the highest standards of animal welfare and is subject to legislation under the Italian Legislative Decree no. 26/2014. All studies were conducted in accordance with national legislation and under authorization issued by the Italian Ministry of Health. The rat heart homogenate aliquots were prepared according to the following procedure. Hearts from 20 Sprague Dawley male rats were dissected out and quickly frozen at −80° C. On the day of homogenate preparation, hearts were thawed at 4° C. Groups of 2 hearts in 2 volumes of ice cold 20 mM HEPES, 1 mM EDTA, pH 7.4 buffer were homogenized with the GentleMACS dissociator (Miltenyi Biotec) using the D02 protocol. The final suspension of 20 hearts was divided in 4 aliquots with additional ice cold buffer up to 200 mL for each tube, homogenized with a Polytron and centrifuged at 24,000g for 40 min at 4° C. (T21 Sorvall, Rotor SL0250T, 13,500 rpm). For each tube, the supernatant was discarded, and the pellet resuspended with 100 mL of ice cold buffer, homogenized and centrifuged. This step was repeated twice. The final pellets were collected together in one tube with 70 mL of buffer. […] The protein content, measured with the Bradford (Bio-Rad) method using BSA as standard was 6.15 mg/mL. […]"}
{"substance": "D-Arg-DMT-Lys-Phe-NH2 [SBT-031]", "values": [{"measurement": "pIC50, high affinity value of the unlabeled SBT-031 displacement curve", "value": "7.6±0.5"}]}
